Results as given in patent publication US20240238316A1, “C[…]” (priority 2021, published 2024).

Assay: solvents tested for dissolving the acid and the cannabinoid
Type: physicochemical
Conditions: compared with other solvents, including other alcohols
Method: Various solvents are tested, including other alcohols.

## CC(O)CO (stereo not shown) [Propylene glycol]
  dissolution of the acid and the cannabinoid in the solvent: dissolve both the acid and the cannabinoid efficiently and without excessive heating
